“Also recorded” adds a separate entry of the source. Read-outs that look alike come from different tables or passages of the source.
Key:
Candida albicans = assay: Antifungal activity in 96-well microtiter plates; type: cell-based; design: key: +++: high sensitivity, no hyphal growth; ++: medium sensitivity; +: low sensitivity; −: no effect; conditions: 24 h
Aspergillus niger = assay: Antifungal activity in 96-well microtiter plates; type: cell-based; design: key: +++: high sensitivity, no hyphal growth; ++: medium sensitivity; +: low sensitivity; −: no effect; conditions: 24 h
Fusarium graminearum = type: cell-based; design: key: +++: high sensitivity, no hyphal growth; ++: medium sensitivity; +: low sensitivity; −: no effect; conditions: 24 h
Candida parapsilosis = assay: Antifungal activity in 96-well microtiter plates; type: cell-based; design: key: +++: high sensitivity, no hyphal growth; ++: medium sensitivity; +: low sensitivity; −: no effect; conditions: 24 h
Candida crusei = assay: Antifungal activity in 96-well microtiter plates; type: cell-based; design: key: +++: high sensitivity, no hyphal growth; ++: medium sensitivity; +: low sensitivity; −: no effect; conditions: 24 h
[1] = test system: Rhizopus stolonifer var. stolonifer; assay: Antifungal activity in 96-well microtiter plates; type: cell-based; design: key: +++: high sensitivity, no hyphal growth; ++: medium sensitivity; +: low sensitivity; −: no effect; conditions: 24 h
Aspergillus flavus = assay: Antifungal activity in 96-well microtiter plates; type: cell-based; design: key: +++: high sensitivity, no hyphal growth; ++: medium sensitivity; +: low sensitivity; −: no effect; conditions: 24 h
[2] = test system: Curtobacterium, flaccumfaciens; assay: PI staining, broad spectrum activity; type: cell-based; conditions: 50 μg/ml
Clavibacter michigense [3] = assay: PI staining, broad spectrum activity; type: cell-based; conditions: 50 μg/ml
[4] = test system: Pseudomonas syringae pv tomato DC3000; assay: CFU determination, broad spectrum activity; type: cell-based; conditions: 50 μg/ml, Pseudomonas syringae pv tomato DC3000, untreated 10^7
Bacillus subtilis [5] = assay: CFU determination, broad spectrum activity; type: cell-based; conditions: 50 μg/ml, untreated 10^6
Xanthomonas 2880 [6] = assay: CFU determination, broad spectrum activity; type: cell-based; conditions: 50 μg/ml, Xanthomonas 2880, untreated 10^7
[7] = test system: Sinorhizobium meliloti AK631; assay: PI staining of Sinorhizobium meliloti; conditions: 50 μg/ml; for PI staining (PI uptake): FIG. 2A; for PI: Sinorhizobium meliloti (AK631)
Xanthomonas 2880 [8] = assay: PI staining, broad spectrum activity; type: cell-based; conditions: 50 μg/ml
[9] = test system: Curtobacterium, flaccumfaciens; assay: CFU determination, broad spectrum activity; type: cell-based; conditions: 50 μg/ml, untreated 10^9
Bacillus subtilis [10] = assay: PI staining, broad spectrum activity; type: cell-based; conditions: 50 μg/ml
Clavibacter michigense [11] = assay: CFU determination, broad spectrum activity; type: cell-based; conditions: 50 μg/ml, untreated 10^9
Staphylococcus aureus [12] = assay: PI staining, broad spectrum activity; type: cell-based; conditions: 50 μg/ml
[13] = test system: Sinorhizobium meliloti AK631; assay: CFU determination of Sinorhizobium meliloti; conditions: for CFU % / CFU (colony/ml): 1 hr; for CFU determination (colony formation): 3 hours, 2-3×10^6 bacteria, FIG. 2B; for CFU: Sinorhizobium meliloti (AK631), untreated 10^7; for eradication of the bacteria: from the low dose of 20 μg/ml
Staphylococcus aureus [14] = assay: CFU determination, broad spectrum activity; type: cell-based; conditions: 50 μg/ml, untreated 10^6
[15] = test system: Pseudomonas syringae pv tomato DC3000; assay: PI staining, broad spectrum activity; type: cell-based; conditions: 50 μg/ml
Pseudomonas aeruginosa [16] = assay: PI staining, broad spectrum activity; type: cell-based; conditions: 50 μg/ml
Pseudomonas aeruginosa [17] = assay: CFU determination, broad spectrum activity; type: cell-based; conditions: 50 μg/ml, Pseudomonas aeruginosa, untreated 10^7

## C[C@@H]1[C@H](O)[C@@H](C)/C=C/C=C/C=C/C=C/C=C/C=C/C=C/[C@H](O[C@@H]2O[C@H](C)[C@@H](O)[C@H](N)[C@@H]2O)C[C@@H]2O[C@](O)(C[C@@H](O)C[C@@H](O)[C@H](O)CC[C@@H](O)C[C@@H](O)CC(=O)O[C@H]1C)C[C@H](O)[C@H]2C(=O)O [AMB, Amfotericin B, reference compound]
Candida albicans; 125 μg/ml
  Fungal (hyphal) growth, sensitivity: +++
Aspergillus niger; 125 μg/ml
  Fungal (hyphal) growth, sensitivity: +++
Fusarium graminearum; 125 μg/ml
  Fungal (hyphal) growth, sensitivity: ++
Candida parapsilosis; 125 μg/ml
  Fungal (hyphal) growth, sensitivity: +++
Candida crusei; 125 μg/ml
  Fungal (hyphal) growth, sensitivity: +++
[1]; 125 μg/ml
  Fungal (hyphal) growth, sensitivity: +++
Aspergillus flavus; 125 μg/ml
  Fungal (hyphal) growth, sensitivity: +++

## NCR035: cationic NCR peptide (SFLGTFISSCKRDKDCPKLYGANFRCRKGTCVPPI; Peptide derived from Medicago truncatula)
[2]
  PI: PI: 78%
Clavibacter michigense [3]
  PI: PI: 110%
[4]
  CFU: CFU: 10^7
Bacillus subtilis [5]
  CFU: CFU: 10^3
Candida albicans; 25 μg/ml
  Fungal (hyphal) growth, sensitivity: +
Candida albicans; 50 μg/ml
  Fungal (hyphal) growth, sensitivity: ++
Candida albicans; 100 μg/ml
  Fungal (hyphal) growth, sensitivity: ++
Xanthomonas 2880 [6]
  CFU: CFU: 10^2
Aspergillus niger; 25 μg/ml
  Fungal (hyphal) growth, sensitivity: −
Aspergillus niger; 50 μg/ml
  Fungal (hyphal) growth, sensitivity: −
Aspergillus niger; 100 μg/ml
  Fungal (hyphal) growth, sensitivity: +
[7]; listed as NCR35
  PI staining (PI uptake): provoked PI uptake; also recorded: comparable to heat killed bacteria or bacteria treated with polymyxin B
[7]
  PI: PI: 90%
Xanthomonas 2880 [8]
  PI: PI: 100%
Fusarium graminearum; 25 μg/ml
  Fungal (hyphal) growth, sensitivity: −
Fusarium graminearum; 50 μg/ml
  Fungal (hyphal) growth, sensitivity: +
Fusarium graminearum; 100 μg/ml
  Fungal (hyphal) growth, sensitivity: ++
Candida parapsilosis; 25 μg/ml
  Fungal (hyphal) growth, sensitivity: +
Candida parapsilosis; 50 μg/ml
  Fungal (hyphal) growth, sensitivity: ++
Candida parapsilosis; 100 μg/ml
  Fungal (hyphal) growth, sensitivity: ++
[9]
  CFU: CFU: 10^5
Bacillus subtilis [10]
  PI: PI: 100%
Clavibacter michigense [11]
  CFU: CFU: 10^4
Candida crusei; 25 μg/ml
  Fungal (hyphal) growth, sensitivity: +
Candida crusei; 50 μg/ml
  Fungal (hyphal) growth, sensitivity: ++
Candida crusei; 100 μg/ml
  Fungal (hyphal) growth, sensitivity: ++
[1]; 25 μg/ml
  Fungal (hyphal) growth, sensitivity: −
[1]; 50 μg/ml
  Fungal (hyphal) growth, sensitivity: +
[1]; 100 μg/ml
  Fungal (hyphal) growth, sensitivity: ++
Aspergillus flavus; 25 μg/ml
  Fungal (hyphal) growth, sensitivity: −
Aspergillus flavus; 50 μg/ml
  Fungal (hyphal) growth, sensitivity: +
Aspergillus flavus; 100 μg/ml
  Fungal (hyphal) growth, sensitivity: ++
Staphylococcus aureus [12]
  PI: PI: 100%
[13]; 20 μg/ml
  CFU %: 0%
  CFU (colony/ml): 21000 colony/ml
[13]; 50 μg/ml
  CFU %: 0%
  CFU (colony/ml): 0 colony/ml
  CFU determination (colony formation): none formed colony
  CFU: CFU: 0
[13]
  eradication of the bacteria: able to eradicate the bacteria in less than an hour
Staphylococcus aureus [14]
  CFU: CFU: 10^6
[15]
  PI: PI: 100%

## NCR055: cationic NCR peptide (VNDCIRIHCKDDFDCIENRLQVGCRLQREKPRCVNLVCRCLRR; Peptide derived from Medicago truncatula)
[2]
  PI: PI: 80%
Clavibacter michigense [3]
  PI: PI: 100%
[4]
  CFU: CFU: 0
Pseudomonas aeruginosa [16]
  PI: PI: 10%
Bacillus subtilis [5]
  CFU: CFU: 0
Candida albicans; 50 μg/ml
  Fungal (hyphal) growth, sensitivity: +++
Candida albicans; 100 μg/ml
  Fungal (hyphal) growth, sensitivity: +++
Xanthomonas 2880 [6]
  CFU: CFU: 10^4
Aspergillus niger; 50 μg/ml
  Fungal (hyphal) growth, sensitivity: ++
Aspergillus niger; 100 μg/ml
  Fungal (hyphal) growth, sensitivity: ++
[7]; listed as NCR55
  PI staining (PI uptake): provoked PI uptake; also recorded: comparable to heat killed bacteria or bacteria treated with polymyxin B
[7]
  PI: PI: 80%
Xanthomonas 2880 [8]
  PI: PI: 100%
Fusarium graminearum; 50 μg/ml
  Fungal (hyphal) growth, sensitivity: −
Fusarium graminearum; 100 μg/ml
  Fungal (hyphal) growth, sensitivity: ++
Candida parapsilosis; 50 μg/ml
  Fungal (hyphal) growth, sensitivity: +++
Candida parapsilosis; 100 μg/ml
  Fungal (hyphal) growth, sensitivity: +++
[9]
  CFU: CFU: 0
Bacillus subtilis [10]
  PI: PI: 100%
Clavibacter michigense [11]
  CFU: CFU: 0
Candida crusei; 50 μg/ml
  Fungal (hyphal) growth, sensitivity: +++
Candida crusei; 100 μg/ml
  Fungal (hyphal) growth, sensitivity: +++
[1]; 50 μg/ml
  Fungal (hyphal) growth, sensitivity: ++
[1]; 100 μg/ml
  Fungal (hyphal) growth, sensitivity: +++
Aspergillus flavus; 50 μg/ml
  Fungal (hyphal) growth, sensitivity: +
Aspergillus flavus; 100 μg/ml
  Fungal (hyphal) growth, sensitivity: ++
Pseudomonas aeruginosa [17]
  CFU: CFU: 10^5
Staphylococcus aureus [12]
  PI: PI: 100%
[13]; 20 μg/ml
  CFU %: 0%
  CFU (colony/ml): 1800 colony/ml
[13]; 50 μg/ml
  CFU %: 0%
  CFU (colony/ml): 0 colony/ml
  CFU determination (colony formation): none formed colony
  CFU: CFU: 0
[13]
  eradication of the bacteria: able to eradicate the bacteria in less than an hour
[15]
  PI: PI: 85%

From patent US8592367B2, “Nodule specific medicago peptides having antimicrobial activity and pharmaceutical compositions containing the same” (priority 2009, dated 2013)
